Data set [1] concerns Rat2 fibroblasts stably transformed with v-Src/Hu c-Src fusion gene. As to the kind of experiment: Anchorage independent Src-transformed fibroblast proliferation assay. In kind it is cell-based, rat. As to conditions: for inhibition at 10 µM / inhibition at 100 µM: Rat2, Table 1; for inhibition at 10 µM: read-out: Src cells % inh at 10 μM; for inhibition at 100 µM: read-out: Src cells % inh at 100 μM. On the procedure: Anchorage Independent Src-Transformed Fibroblast Proliferation Assay Rat2 fibroblasts stably transformed with a plasmid containing a CMV promotor controlled v-Src/Hu c-Src fusion gene in which the catalytic domain of human c-Src was inserted in place of the v-Src catalytic domain in the v-Src gene are used for the measurement of src dependent suspension growth. […] Multiple entries for a given compound indicate that it was tested multiple times.

The mark [2] stands for this setting: Rattus norvegicus, Rat2, 120 h, Table 1, suspension growth, MTS readout Day 5, read-out: Src cells IC50.
[3] abbreviates: Table 1, suspension growth, MTS readout Day 5, read-out: Src cells IC50.

As usually defined, the melting point is the temperature, or range, at which the solid turns liquid. In general, IC50 refers to the concentration at which inhibition is half-maximal.

Like-named read-outs stand apart in the source and are kept apart here. Bounds are passed on as bounds.

`N#Cc1cnc2ccsc2c1NCc1ccc(Cl)cc1Cl` [Example 13, 7-[(2,4-Dichlorobenzyl)amino]thieno[3,2-b]pyridine-6-carbonitrile]: the melting point lay within 215 to 216 °C. Also, in data set [1] (Rattus norvegicus), the inhibition at 10 µM came to 34%.

`COc1cc(Nc2c(C#N)cnc3cc(-c4csc(C=O)c4)sc23)c(Cl)cc1Cl` [Example 37, 7-[(2,4-Dichloro-5-methoxyphenyl)amino]-2-(5-formylthien-3-yl)thieno[3,2-b]pyridine-6-carbonitrile] had a melting point of 259 to 261 °C. In addition, the 50% inhibitory concentration (IC50) in data set [1] (setting [2]) was found to be 1.1 µM.

Compound `COc1cc(Nc2c(C#N)cnc3sc(I)cc23)c(Cl)cc1Cl` [Example 7, 4-[(2,4-Dichloro-5-methoxyphenyl)amino]-2-iodothieno[2,3-b]pyridine-5-carbonitrile] had a melting point of 231 to 233 °C. Besides, the inhibition at 10 µM in data set [1] (Rattus norvegicus) stood at 31%.

As for `COc1cc(Nc2c(C#N)cnc3cc(C#Cc4cccnc4)sc23)c(Cl)cc1Cl` [Example 35, 7-[(2,4-Dichloro-5-methoxyphenyl)amino]-2-(pyridin-3-ylethynyl)thieno[3,2-b]pyridine-6-carbonitrile], the melting point lay within 249 to 250 °C. The 50% inhibitory concentration (IC50) in data set [1] (setting [2]) is 0.98 µM.

The compound `CN1CCN(Cc2ccc(-c3cc4ncc(C#N)c(Nc5ccc(Oc6ccccc6)cc5)c4s3)cc2)CC1` [Example 44, 2-[4-(4-Methylpiperazin-1-ylmethyl)phenyl]-7-[(4-phenoxyphenyl)amino]thieno[3,2-b]pyridine-6-carbonitrile] gave a melting point of 199 to 201 °C. Moreover, the IC50 in data set [1] (setting [2]) turned out to be 2.4 µM.

The compound `COc1cc(Nc2c(C#N)cnc3cc(-c4ccc(CN5CCC(O)CC5)cc4)sc23)c(Cl)cc1Cl` [Example 40, 7-[(2,4-Dichloro-5-methoxyphenyl)amino]-2-{4-[(4-hydroxypiperidin-1-yl)methyl]phenyl}thieno[3,2-b]pyridine-6-carbonitrile] came in with a melting point of 149 to 150 °C. In addition, the IC50 in data set [1] (setting [2]) amounted to 0.71 µM. Besides, in data set [1] (setting [3]), the IC50 was found to be 0.43 µM.

Compound `COc1cc(Nc2c(C#N)cnc3cc(-c4ccc(CN5CCN(Cc6ccccn6)CC5)cc4)sc23)c(Cl)cc1Cl` [Example 124, 7-[(2,4-dichloro-5-methoxyphenyl)amino]-2-(4-{[4-(pyridin-2-ylmethyl)piperazin-1-yl]methyl}phenyl)thieno[3,2-b]pyridine-6-carbonitrile] displayed a melting point of 105 to 107 °C. The IC50 in data set [1] (Rattus norvegicus, Rat2, Table 3, read-out: Src Cells IC50 μM or % inhib at 10 μM (IC50 values)) stood at 0.914 µM. For the same compound, the IC50 in data set [1] (Table 3, read-out: Src Cells IC50 μM or % inhib at 10 μM (IC50 values)) amounted to 0.576 µM.

For the compound `COc1cc(Nc2c(C#N)cnc3cc(-c4ccc(C(=O)O)cc4)sc23)c(Cl)cc1Cl` [Example 19, 4-{6-Cyano-7-[(2,4-dichloro-5-methoxyphenyl)amino]thieno[3,2-b]pyridine-2-yl]benzoic acid], the melting point is > 300 °C. The IC50 in data set [1] (setting [2]) was > 10 µM.

As for `COc1cc(Nc2c(C#N)cnc3sc(C#Cc4cccnc4)cc23)c(Cl)cc1Cl` [Example 52, 4-[(2,4-Dichloro-5-methoxyphenyl)amino]-2-(pyridin-3-ylethynyl)thieno[2,3-b]pyridine-5-carbonitrile], the melting point is 191 °C (dec.). Also, in data set [1] (Rattus norvegicus), the inhibition at 100 µM is 61%.

`COc1cc(Nc2c(C#N)cnc3sccc23)c(Cl)cc1Cl` [Example 5, 4-[(2,4-Dichloro-5-methoxyphenyl)amino]thieno[2,3-b]pyridine-5-carbonitrile]: the melting point was in the range of 197 to 199 °C. Moreover, the IC50 in data set [1] (setting [2]) was found to be 5.6 µM.

For `COc1cc(Nc2c(C#N)cnc3cc(I)sc23)c(Cl)cc1Cl` [Example 4, 7-[(2,4-Dichloro-5-methoxyphenyl)amino]-2-iodothieno[3,2-b]pyridine-6-carbonitrile], the melting point lay in the range of 233 to 234 °C. In addition, in data set [1] (setting [2]), the IC50 was 3.1 µM.

`COc1cc(Nc2c(C#N)cnc3cc(C)sc23)c(Cl)cc1Cl` [Example 9, 7-[(2,4-Dichloro-5-methoxyphenyl)amino]-2-methylthieno[3,2-b]pyridine-6-carbonitrile] displayed a melting point of 213 to 214 °C. The IC50 in data set [1] (setting [2]) worked out at 20 µM.

For `COc1cc(Nc2c(C#N)cnc3cc(-c4ccc(CO)cc4)sc23)c(Cl)cc1Cl` [Example 41, 7-[(2,4-Dichloro-5-methoxyphenyl)amino]-2-[4-(hydroxymethyl)phenyl]thieno[3,2-b]pyridine-6-carbonitrile], the melting point fell in the range of 239 to 240 °C. Moreover, the IC50 in data set [1] (setting [2]) turned out to be 0.56 µM.

In turn, `COc1cc(Nc2c(C#N)cnc3cc(-c4ccc(C=O)cc4)sc23)c(Cl)cc1Cl` [Example 14, 7-[(2,4-Dichloro-5-methoxyphenyl)amino]-2-(4-formylphenyl)thieno[3,2-b]pyridine-6-carbonitrile] returned a melting point of 261 to 262 °C. The IC50 in data set [1] (setting [2]) turned out to be 0.66 µM.

Consider `COc1cc(Nc2c(C#N)cnc3cc(C#C[Si](C)(C)C)sc23)c(Cl)cc1Cl` [Example 32, 7-[(2,4-Dichloro-5-methoxyphenyl)amino]-2-[(trimethylsilyl)ethynyl]thieno[3,2-b]pyridine-6-carbonitrile], for which the melting point fell in the range of 169 to 171 °C. Besides, the IC50 in data set [1] (Rattus norvegicus, Rat2, 120 h, read-out: Src cells IC50 μM, Table 1, suspension growth, MTS readout Day 5) turned out to be 1.5 µM.

In turn, `COc1cc(Nc2c(C#N)cnc3cc(-c4ccc(CN5CCCCC5)cc4)sc23)c(Cl)cc1Cl` [Example 18, 7-[(2,4-Dichloro-5-methoxyphenyl)amino]-2-[4-(piperidin-1-ylmethyl)phenyl]thieno[3,2-b]pyridine-6-carbonitrile] registered a melting point of 218 to 220 °C. The IC50 in data set [1] (setting [2]) stood at 1 µM.

`COc1cc(Nc2c(C#N)cnc3cc(/C=C/C(=O)N4CCN(C)CC4)sc23)c(Cl)cc1Cl` [Example 56, 7-[(2,4-Dichloro-5-methoxyphenyl)amino]-2-[(1E)-3-(4-methylpiperazin-1-yl)-3-oxoprop-1-enyl]thieno[3,2-b]pyridine-6-carbonitrile] had a melting point of 218 to 220 °C. Besides, the IC50 in data set [1] (setting [2]) was determined as 3.93 µM. Also, in data set [1] (setting [3]), the IC50 came out at 2.2 µM.

Compound `COc1cc(Nc2c(C#N)cnc3cc(-c4ccc(C=O)cc4)sc23)cc(OC)c1OC` [Example 55, 2-(4-Formylphenyl)-7-[(3,4,5-trimethoxyphenyl)amino]thieno[3,2-b]pyridine-6-carbonitrile] registered a melting point of 268 to 270 °C. For the same compound, the inhibition at 100 µM in data set [1] (Rattus norvegicus) stood at 97%.

The compound `N#Cc1cnc2cc(-c3ccc(CN4CCOCC4)cc3)sc2c1Nc1ccc(Oc2ccccc2)cc1` [Example 45, 2-[4-(Morpholin-4-ylmethyl)phenyl]-7-[(4-phenoxyphenyl)amino]thieno[3,2-b]pyridine-6-carbonitrile] showed a melting point of 254 to 256 °C. The inhibition at 100 µM in data set [1] (Rattus norvegicus) was determined as 2%.

As to `COc1cc(Nc2c(C#N)cnc3cc(-c4cc5ccccc5o4)sc23)c(Cl)cc1Cl` [Example 24, 2-(1-Benzofuran-2-yl)-7-[(2,4-dichloro-5-methoxyphenyl)amino]thieno[3,2-b]pyridine-6-carbonitrile], the melting point lay in the range of 281 to 282 °C. Further, the IC50 in data set [1] (setting [2]) was found to be 3.8 µM.

The compound `COc1cc(Nc2c(C#N)cnc3cc(-c4cccc(CN5CCOCC5)c4)sc23)c(Cl)cc1Cl` [Example 26, 7-[(2,4-Dichloro-5-methoxyphenyl)amino]-2-[3-(morpholin-4-ylmethyl)phenyl]thieno[3,2-b]pyridine-6-carbonitrile] gave a melting point of 205 to 207 °C. Moreover, the IC50 in data set [1] (setting [2]) came out at 1 µM.

`N#Cc1cnc2cc(-c3ccc(C=O)cc3)sc2c1Nc1ccc(Oc2ccccc2)cc1` [Example 43, 2-(4-Formylphenyl)-7-[(4-phenoxyphenyl)amino]thieno[3,2-b]pyridine-6-carbonitrile] registered a melting point of 230 to 232 °C. For the same compound, the inhibition at 100 µM in data set [1] (Rattus norvegicus) came to 4%.

`N#Cc1cnc2cc(/C=C/c3ccncc3)sc2c1Nc1ccc(Oc2ccccc2)cc1` [Example 49, 7-[(4-Phenoxyphenyl)amino]-2-[(E)-2-pyridin-4-ylethenyl]thieno[3,2-b]pyridine-6-carbonitrile]: the melting point fell in the range of 240 to 241 °C. Further, the inhibition at 100 µM in data set [1] (Rattus norvegicus) was 14%.

On to `COc1cc(Nc2c(C#N)cnc3cc(C#Cc4ccncc4)sc23)c(Cl)cc1Cl` [Example 34, 7-[(2,4-Dichloro-5-methoxyphenyl)amino]-2-(pyridin-4-ylethynyl)thieno[3,2-b]pyridine-6-carbonitrile], for which the melting point lay within 221 to 223 °C. Besides, the IC50 in data set [1] (setting [2]) worked out at 8.6 µM.

Compound `C#Cc1cc2ncc(C#N)c(Nc3cc(OC)c(Cl)cc3Cl)c2s1` [Example 33, 7-[(2,4-Dichloro-5-methoxyphenyl)amino]-2-ethynylthieno[3,2-b]pyridine-6-carbonitrile] displayed a melting point of 198 to 200 °C. For the same compound, in data set [1] (setting [2]), the IC50 was 0.88 µM.

For the compound `Cn1ccnc1Sc1ccc(Nc2c(C#N)cnc3sccc23)cc1Cl` [Example 6, 4-[(3-Chloro-4-[(1-methyl-1H-imidazol-2-yl)thio]phenyl)amino]thieno[2,3-b]pyridine-5-carbonitrile], the melting point was > 240 °C. For the same compound, the inhibition at 100 µM in data set [1] (Rattus norvegicus) came to 3%.

With `COc1cc(Nc2c(C#N)cnc3cc(-c4ccc(C(N)=O)cc4)sc23)c(Cl)cc1Cl` [Example 20, 4-{6-Cyano-7-[(2,4-dichloro-5-methoxyphenyl)amino]thieno[3,2-b]pyridine-2-yl}benzamide], the melting point was > 300 °C. Also, in data set [1] (setting [2]), the IC50 turned out to be 1 µM.

Values taken from patent publication US7276519B2, “Thieno[3,2-b]pyridine-6-carbonitriles and thieno[2,3-b]pyridine-5-carbonitriles as protein kinase inhibitors” (Wyeth, priority 2002, dated 2007).
